Measurements reported in patent US11331375B2, “Compositions and methods for regulating leukocyte adhesion” (University of Virginia Patent Foundation, priority 2015, dated 2022).

Columns and labels:
HAoEC = test: In vitro ATP release assay, HAoEC; type: cell-based, human
Method: In vitro Human arterial and venous ECs were seeded in 24-well plates pre-coated with 0.2% gelatin and grown to confluency. On the day of experiment, the media was removed from each well and cells were carefully washed twice with warm serum free basal EC medium supplemented with 1% BSA. Cells were then incubated in 300 μL of fresh basal EC medium supplemented with 1% BSA for 30 minutes at 37° C. to allow degradation of extracellular ATP released due to mechanical stimulation during washes. Endogenous ecto-nucleotidases were inhibited by incubating EC monolayers with 300 μM ARL 67156 (Tocris) for 30 minutes at 37° C. Cells were then stimulated with recombinant human TNFα (R&D Systems). For dose response experiments, ECs were incubated with 0.1, 1, 5, 10, 50, or 100 ng/mL recombinant TNFα for 30 minutes at 37° C. […] The role of caspase activation was assessed by inhibition with the pan-caspase blocker Q-VD-OPh (100 μM; Sigma). […] Using a FluoStar Omega luminometer, 50 μL of luciferin:luciferase reagent (ATP bioluminescence assay kit HSII; Roche) was injected into each well and luminescence was recorded following a 5s orbital mix. ATP concentration in each sample was calculated from a standard curve for all experiments. Data are presented as a % change in ATP release from baseline (i.e. unstimulated cells) and expressed as mean±SEM (n=5 independent experiments with triplicate measurements).

HUVEC = test: In vitro ATP release assay (luciferin:luciferase), HUVEC; type: cell-based, human
Method: In vitro Human arterial and venous ECs were seeded in 24-well plates pre-coated with 0.2% gelatin and grown to confluency. On the day of experiment, the media was removed from each well and cells were carefully washed twice with warm serum free basal EC medium supplemented with 1% BSA. Cells were then incubated in 300 μL of fresh basal EC medium supplemented with 1% BSA for 30 minutes at 37° C. to allow degradation of extracellular ATP released due to mechanical stimulation during washes. Endogenous ecto-nucleotidases were inhibited by incubating EC monolayers with 300 μM ARL 67156 (Tocris) for 30 minutes at 37° C. Cells were then stimulated with recombinant human TNFα (R&D Systems). For dose response experiments, ECs were incubated with 0.1, 1, 5, 10, 50, or 100 ng/mL recombinant TNFα for 30 minutes at 37° C. For time-course experiments, ECs were stimulated with 10 ng/mL recombinant TNFα for different time points up to 1 hour. In experiments where pharmacological inhibitors were employed, ECs were incubated with antagonists in parallel with ARL 67156 for 30 minutes. To inhibit TNFR1, ECs were incubated with the peptide antagonist of the receptor WP9QY (10 μM; Anaspec). […] Cx hemichannels were inhibited with lanthanum (La^3+; 100 μM; Sigma) and Panx1 channels were blocked with carbenoxolone (CBX; 50 μM; Sigma) and the inhibitory peptide ^10panx1 (200 μM; Genscript). […] The role of caspase activation was assessed by inhibition with the pan-caspase blocker Q-VD-OPh (100 μM; Sigma). Following stimulation with TNFα or vehicle, 150 μL of the cell supernatant was collected and immediately placed into pre-chilled 1.5 mL Eppendorf tubes on ice. All samples were centrifuged at 10,000×g for 5 minutes and 50 μL of each sample was transferred to a white, opaque 96-well plate. Using a FluoStar Omega luminometer, 50 μL of luciferin:luciferase reagent (ATP bioluminescence assay kit HSII; Roche) was injected into each well and luminescence was recorded following a 5s orbital mix. ATP concentration in each sample was calculated from a standard curve for all experiments. Data are presented as a % change in ATP release from baseline (i.e. unstimulated cells) and expressed as mean±SEM (n=5 independent experiments with triplicate measurements).

[1] = system: isolated murine mesenteric venules; test: Ex vivo vascular perfusion ATP release assay, mesenteric venules; type: cell-based, mouse; settings: lumenal perfusion
Method: For isolated blood vessel experiments, 2nd order venules or arterioles were dissected from the mouse mesentery circulation and cannulated on glass micropipettes to access the vessel lumen. […] Vessels were then perfused with MOPS PSS containing 300 μM ARL 67156 +/− pharmacological inhibitors and incubated for an additional 20 minutes prior to perfusion with MOPS PSS containing recombinant murine TNFα (R&D Systems). Aliquots of the lumenal perfusate were collected every 5 minutes for a 25-minute period and the ATP concentration was quantified by bioluminescence as described above. Data are expressed as mean±SEM (n=4 independent experiments).

Panx1 = test: Western blot of Panx1 phosphorylation at Y198 in venous ECs; type: cell-based, human; settings: HUVEC and HSaVECs; TNFα 10 ng/mL
Method: (§1) Following stimulation with TNFα (in vitro: 10 ng/mL; ex vivo: 50 ng/mL), confluent endothelial cell monolayers or isolated mesenteric venules were homogenized in ice cold Triton extraction buffer (50 mM Tris-HCL, 150 mM NaCl , 5 mM EDTA, 1% deoxycholate, 1% NP-40 and 1% Triton-X100 in phosphate buffered saline and pH adjusted to 7.4) containing protease and phosphatase inhibitors. Cell/Tissue lysates were incubated with rotation at 4° C. for 20 minutes to solubilize proteins, followed by centrifugation for 5 minutes at 13,000× g to pellet cell debris. Protein concentration was quantified using the BCA method. 15-20 μg of total protein was subjected to SDS gel electrophoresis using 4-12% Bis-Tris gels (Invitrogen) and transferred to nitrocellulose membranes for immunoblotting. Membranes were blocked for 1 hr at room temperature with LiCOR blocking solution, then incubated overnight at 4° C. with primary antibodies against pY416SFKs, (BD Biosciences; 1:1000) pY198Panx1 (Alpha Diagnostic Intl (ADI); 1:1000) and GAPDH (Sigma; 1:10,000) or an antibody against the intracellular loop of Panx1 (Panx1-IL) (ADI; 1:1000) (normalization controls). Membranes were then washed and incubated with LiCOR secondary antibodies (1:10,000) and visualized and quantitated using LiCOR Odyssey. To inhibit SFK activity, EC monolayers were incubated with the SFK inhibitor PP2 (Tocris; 10 μM). […] To show specificity for the phosphorylated form of SFKs and Panx1, cell lysates were incubated with alkaline phosphatase for 1 hour at 37° C. Western blot images have been cropped for presentation. Uncropped Western blots can be found in FIGS. 12-13. Data are expressed as mean±SEM (n=3 independent experiments).

Src Family Kinases (SFK) [2] = test: Western blot of SFK activation (pY416SFK) in venous ECs; type: cell-based, human; settings: HUVEC and HSaVEC; acute (5 minute) TNFα
Method: as §1

[3] = system: isolated mesenteric venules; test: LDH release assay in perfused venules; type: cell-based, mouse; settings: perfusion of TNFα
Method: Isolated mesenteric venules were cannulated and perfused with recombinant mouse TNFα for 20 minutes followed by lysis buffer. Perfusate samples were collected as described above and LDH activity was assayed with the Cytotoxicity Detection Kit Plus (Roche) according to the manufacturer's protocol as an output for cell death. Data are expressed as mean±SEM (n=3 independent experiments).

Src Family Kinases (SFK) [4] = test: Western blot of SFK activation in isolated mesenteric venules; type: cell-based, mouse; settings: mesenteric venules perfused with TNFα 50 ng/mL 30 minutes
Method: Following stimulation with TNFα (in vitro: 10 ng/mL; ex vivo: 50 ng/mL), confluent endothelial cell monolayers or isolated mesenteric venules were homogenized in ice cold Triton extraction buffer (50 mM Tris-HCL, 150 mM NaCl , 5 mM EDTA, 1% deoxycholate, 1% NP-40 and 1% Triton-X100 in phosphate buffered saline and pH adjusted to 7.4) containing protease and phosphatase inhibitors. Cell/Tissue lysates were incubated with rotation at 4° C. for 20 minutes to solubilize proteins, followed by centrifugation for 5 minutes at 13,000× g to pellet cell debris. Protein concentration was quantified using the BCA method. 15-20 μg of total protein was subjected to SDS gel electrophoresis using 4-12% Bis-Tris gels (Invitrogen) and transferred to nitrocellulose membranes for immunoblotting. Membranes were blocked for 1 hr at room temperature with LiCOR blocking solution, then incubated overnight at 4° C. with primary antibodies against pY416SFKs, (BD Biosciences; 1:1000) pY198Panx1 (Alpha Diagnostic Intl (ADI); 1:1000) and GAPDH (Sigma; 1:10,000) or an antibody against the intracellular loop of Panx1 (Panx1-IL) (ADI; 1:1000) (normalization controls). Membranes were then washed and incubated with LiCOR secondary antibodies (1:10,000) and visualized and quantitated using LiCOR Odyssey. […] Data are expressed as mean±SEM (n=3 independent experiments).

[5] = system: THP-1 monocyte adhesion to HUVEC; test: Static adhesion assay, THP-1 monocytes on HUVEC; type: cell-based, human; settings: HUVEC monolayers activated with TNFα for 30 minutes
Method: HUVECs were seeded on gelatin-coated glass coverslips in 6-well plates and grown to confluence. On the day of the experiment, cells were washed 2× with 1× PBS and incubated for 30 minutes in basal EGM supplemented with 1% BSA in the presence or absence of pharmacological inhibitors. During this incubation period, human THP-1 monocytes were loaded with Calcein-AM (Invitrogen; 5 μg/mL) for 30 minutes at 37° C. Cells were then pelleted by brief centrifugation and excess calcein was removed by washing THP-1 cells 3 times in 1× PBS. Next, HUVECs were stimulated with TNFα (10 ng/mL) for 30 minutes. Following EC activation, calcein-loaded THP-1 monocytes were added to EC monolayers and incubated for 20 minutes at 37° C. to allow THP-1 to contact ECs. Monolayers were then washed 3× with 1× PBS and fixed in ice cold 4% PFA. Following fixation, coverslips were removed from the 6-well plates and mounted on glass microscope slides with Prolong Gold anti-fade mountant with DAPI (Life Technologies). Fluorescent micrographs were obtained at 10×magnification and the number of adherent THP-1 monocytes/ECs was quantified in 5 randomized regions/slide. Data are expressed as mean±SEM (n=3 independent experiments).

Substance: TNFα
- ATP release on cytokine stimulation (HAoEC): failed to release ATP
- TNFα dose with significant ATP release response (HUVEC; EC ATP release, range tested 0.1-100 ng/mL): ≥ 10 ng/mL
- ATP release on cytokine stimulation (HUVEC; HUVEC monolayers): significant increase
- TNFα concentration giving maximal accumulation of extracellular ATP (HUVEC; cultured venous ECs): 10 ng/mL
- time to maximal accumulation of extracellular ATP (HUVEC; cultured venous ECs, 10 ng/mL TNFα): approximately 10 minutes
- ATP accumulation in the perfusate on cytokine perfusion [1]: time- and dose-dependent increase
- Panx1 phosphorylation at Y198 (Panx1): increased phosphorylation at Y198
- Y416 phosphorylation of SFK (Src Family Kinases (SFK) [2]): significant increase
- cell death (LDH accumulation in perfusates) [3]: did not induce cell death
- SFK activation (Src Family Kinases (SFK) [4]): increasing SFK activation
- increase of THP-1 monocyte adhesion [5]: ~4 fold
